Results published in patent US5498788A, “Inclusion complexes of clavulanic acid and of potassium salts thereof with hydrophobic β-cyclodextrin derivatives a process for the preparation thereof” (LEK, tovarna farmacevtskih, priority 1992, dated 1996).

Legend:
[1] = Stability test of complexed and uncomplexed potassium clavulanate in artificial gastric juice (pH 1.2, 37° C.); type: physicochemical
Experimental: Stability test of complexed and uncomplexed potassium clavulanate in artificial gastric juice (pH 1.2) at the temperature of 37° C.
For the test the following samples were used:
Medium: artificial gastric juice--aq. HCl/NaCl buffer, pH 1.2, according to USP XXII.
Concentration of clavulanic acid (abbr. KA) in samples: 4 mg/ml.
The samples 1 to 3 were dissolved under stirring in an artificial gastric juice (100 ml) thermostated at 37° C., at the concentration of 4 mg/ml with regard to the clavulanic acid. Subsequently, 100 μl aliquots were taken at 5 min intervals for analysis by the HPLC, until a more than 95% KA decomposition was found. The solution was stirred all the time at the temperature of 37° C. ±0.5° C.
Separately, a series of ten 10 ml aliquots of KA-TA-β-CD suspension in a buffer of a pH of 1.2 (cone. of KA=4 mg/ml), which were constantly stirred during thermostating at 37° C., was prepared. At time intervals of 5 to 10 min, the individual aliquots were filtered (membrane filter 0.4 μm) and in the clear filtrate the concentration of clavulanic acid was determined by HPLC. The KA content at times up to 90 min of thermostating was noted.
The results of measurements after 15, 30, 45, 60 and 90 min of thermostating the samples at 37° C. in a buffer at pH 1.2 are shown in following Table.

[2] = cited from earlier work
β-lactamases = settings: cited from earlier work
[3] = penicillinic and cephalosporin class; cited from earlier work

Compound | remaining at 0.25 h ([1]; artificial gastric juice, 15 min thermostating, pH 1.2, 37° C., KA 4 mg/ml, read-out: KA (undecomp.) as to the initial KA conc. (100%) in samples) [%] | remaining at 0.5 h ([1]; artificial gastric juice, 30 min thermostating, pH 1.2, 37° C., KA 4 mg/ml, read-out: KA (undecomp.) as to the initial KA conc. (100%) in samples) [%] | remaining at 0.75 h ([1]; artificial gastric juice, 45 min thermostating, pH 1.2, 37° C., KA 4 mg/ml, read-out: KA (undecomp.) as to the initial KA conc. (100%) in samples) [%] | time of 95% decomposition of clavulanic acid (t95%) ([1]; pH 1.2, 37° C. (FIG. 9)) [min] | time of 95% decomposition of clavulanic acid ([1]; conditions present in gastric juice, 37° C.) [min] | solubility in water (in words) [2] | inhibition of β-lactamases (in words) (β-lactamases) | effect in combination with β-lactam antibiotics [3]
O=C(O)[C@H]1/C(=C/CO)O[C@@H]2CC(=O)N21 [KK, potassium clavulanate] | 18.1 | 1.3 | 0 | 26 | – | – | – | –
O=C(O)[C@H]1/C(=C/CO)O[C@@H]2CC(=O)N21 [clavulanic acid, (2R,5R,Z)-3-(2-hydroxyethylidene)-7-oxo-4-oxa-1-azabicyclo[3.2.0]heptane-2-carboxylic acid] | – | – | – | – | 26 | very well soluble in water | inhibitors of β-lactamases | synergistic effect
